# Data taken from US4563470A, “N-Substituted α,ωamino and imino-sulfonic acid salts and their application as cationic vectors of high cellular penetration” (Les Laboratories Meram, priority 1982, dated 1986).
# Where two headings read alike, the source gives them in different places.
# How the values were obtained:
# Solubility = format: physicochemical; conditions: for solubility in alcohol / ethanol: alcohol or ethanol
# in vivo = conditions: mouse, in vivo; for selectivity ratio: B/P ratio (oral LD50 / i.p. LD50)
# Description: (§1) The study is carried out with Swiss I.O.P.S. mice, in lots of 20 animals of both sexes.
# [1] = Acute toxicity LD50 oral vs i.p. and B/P ratio, sodium salts (species not restated); format: in vivo; conditions: for selectivity ratio / LD50: in vivo
# Text: While the ratio for the reference salt, sodium chloride, is greater than 205.4/61.2=3.36, it is, for the imino compounds of Examples 1 and 5 7.0/3.0=2.33 and 6.7/4.4=1.52, respectively, and, for the amino compounds of Examples 2 and 6 (while not strictly determined but without doubt greater than 1), respectively greater than 20.1/20.1=1 and greater than […].
# [2] = Test of Frances et al. (ED50 rolling, trembling)
# Swiss I.O.P.S. mice = assay: in vivo; conditions: Swiss I.O.P.S. mouse; for LD50 by gastric tubage (B): oral
# Description: as §1
# [3] = system: Sprague-Dawley I.O.P.S. rats; assay: Oral magnesium recharge in magnesium-deficient rats; format: in vivo, rat (Sprague-Dawley I.O.P.S.); conditions: for onset of correction of erythrocyte magnesium: 40, 20 or 5 mg magnesium/kg/day; for aggression of deficient rats with respect to mice (muricide activity): magnesium-deficient rats (25 ppm Mg); for erythrocyte magnesium level (hypercorrection): third day, deficient animals 40 mg, controls 60 mg
# [4] = Therapeutic use in a patient with latent tetany by magnesium deficiency; format: in vivo, human
# Description: was attacked by latent tetany by magnesium deficiency. They were treated for two years by various forms of magnesotherapy: 3 g magnesium lactate per day or three drinkable ampoules of magnesium pyroglutamate (standardised 127 mg Mg^2+ per ampoule) per day, without succeeding in correcting an erythrocyte magnesium level varying from 43 to 46 mg/l. A prescription of 3 gelatine-coated pills of the compound of Example 13 led to a regression of […] (headache, asthenia, cramp) and the increase, to 48 mg/l in the first month and to 53 mg/l in the second month, of the erythrocyte magnesium level. Ultimately, it was nevertheless observed that each interruption in administration of the product was followed, in the subsequent chemical and biological monthly control, by a relapse (comprising the symptomotology and reduction of the erythrocyte magnesium level to about 45 mg/l).
# [5] = Acute toxicity LD50 oral vs i.p. and B/P ratio, rat; format: in vivo; conditions: in vivo, Sprague-Dawley I.O.P.S. rat
# Text: (§2) It has been determined that this discovery is not appropriate to a particular animal, by making the same observation for the Sprague-Dawley I.O.P.S. rat where the B/P ratio for magnesium chloride is greater than […]. For the respective compounds of Examples 13 and 14, the ratio is reduced in a most significant manner (p<0.001), to 3.3/2.2=1.5 and […].
# [6] = Antagonism of neurotoxic/convulsant activity of kainic acid, wet dog shaking (test of Fariello et al.); format: in vivo, rat; conditions: per os
# Description: (§3) By way of example, the compounds are tested, on one hand by the test of Macallum et al., Can.
# insulin = assay: Potentiation of the hypoglycemic activity of insulin (test of Macallum et al.); format: in vivo, rabbit; conditions: for potentiation of the hypoglycemic activity of insulin, intravenous / potentiation of the hypoglycemic activity of insulin, oral: intravenous; for potentiation of the hypoglycemic activity of insulin, oral: non-convulsant dose of insulin; for oral activity after the metabolic and neurologic tests: summary of insulin potentiation and kainic acid tests
# Description: as §3
# [7] = kainic acid administered systemically to the rat; Fariello et al. 1980; cited from earlier work
# [8] = system: Sprague-Dawley I.O.P.S. rat; assay: Acute toxicity LD50 oral vs i.p. and B/P ratio, rat; format: in vivo
# Text: as §2
# [9] = ip, LD50 i.p. (P), Swiss I.O.P.S. mouse
# [10] = po, LD50 by gastric tubage (B), Swiss I.O.P.S. mouse
# [11] = oral, read-out: LD50 by gastric tubage (B)
# [12] = one patient, 3 gelatine-coated pills (750 mg, 32 mg Mg ion daily)
# [13] = ip, i.p., read-out: LD50 i.p. (P)
compound,measurement,setting,value
Cc1ncc(CO)c(CNCCS(=O)(=O)[O-])c1O.[Li+],solubility in acetone,Solubility,Insoluble
same,solubility in water,Solubility,Soluble
Cc1ncc(CO)c(CNCCS(=O)(=O)[O-])c1O.[K+],selectivity ratio,in vivo; Swiss I.O.P.S. mouse,1.2
same,LD50,in vivo; [9],13000 µmol/kg
same,LD50,in vivo; [10],15700 µmol/kg
same,solubility in acetone,Solubility,Insoluble
same,solubility in water,Solubility,Soluble
Cc1ncc(CO)c(CNCCCS(=O)(=O)[O-])c1O.[Na+],solubility in acetone,Solubility; acetone,Insoluble
same,solubility in water,Solubility; water,Soluble
same,selectivity ratio,[1],> 1.43
same,LD50,"[1]; ip, read-out: LD50 i.p. (P)",13000 µmol/kg
same,LD50,[1]; [11],> 19200 µmol/kg
Cc1ncc(CO)c(CNCCCS(=O)(=O)[O-])c1O.[K+],selectivity ratio,in vivo; Swiss I.O.P.S. mouse,1.19
same,LD50,in vivo; [9],14200 µmol/kg
same,LD50,in vivo; [10],17000 µmol/kg
same,solubility in acetone,Solubility,Insoluble
same,solubility in water,Solubility,Soluble
same,ED50,[2]; read-out: ED50 rolling,270 µmol/kg
same,ED50,[2]; read-out: ED50 trembling,270 µmol/kg
same,activity relative to taurine,[2]; test of Frances et al.,17 times
Cc1ncc(CO)c(CNCCCS(=O)(=O)[O-])c1O.[Li+],solubility in acetone,Solubility,insoluble
same,solubility in water,Solubility,soluble
"[Ca+2].[Cl-].[Cl-] [CaCl2, reference compound]",B/P ratio (oral LD50 / i.p. LD50),Swiss I.O.P.S. mice,> 9.2
same,LD50 by gastric tubage (B),Swiss I.O.P.S. mice,greater than 36.5 mmol/kg
"Cc1ncc(CO)c(C=NCCS(=O)(=O)O)c1O [Example 1, Sodium β-(3-hydroxy-5-hydroxymethyl-2-methyl-4-pyridylmethyleneimino)ethanesulfonate]",solubility in alcohol / ethanol,Solubility,Insoluble
same,selectivity ratio,[1],2.33
same,LD50,"[1]; ip, read-out: LD50 i.p. (P)",3000 µmol/kg
same,LD50,[1]; [11],7000 µmol/kg
"Cc1ncc(CO)c(CNCCS(=O)(=O)[O-])c1O.[Na+] [Example 2, Sodium β-(3-hydroxy-5-hydroxymethyl-2-methyl-4-pyridylmethylamino)ethanesulfonate]",solubility in acetone,Solubility; acetone,Insoluble
same,solubility in methanol,Solubility,Poorly soluble
same,solubility in water,Solubility; water,Soluble
same,selectivity ratio,[1],> 1
same,LD50,"[1]; ip, read-out: LD50 i.p. (P)",20100 µmol/kg
same,LD50,[1]; [11],> 20100 µmol/kg
"Cc1ncc(CO)c(C=NCCS(=O)(=O)O)c1O [Example 3, Potassium β-(3-hydroxy-5-hydroxymethyl-2-methyl-4-pyridylmethyleneimino)ethanesulfonate]",B/P ratio (oral LD50 / i.p. LD50),Swiss I.O.P.S. mice,1.79
same,LD50 by gastric tubage (B),Swiss I.O.P.S. mice,7.0 mmol/kg
"Cc1ncc(CO)c(C=NCCCS(=O)(=O)O)c1O [Example 5, Sodium γ-(3-hydroxy-5-hydroxymethyl-2-methyl-4-pyridylmethyleneimino)propanesulfonate]",solubility in acetone,Solubility; acetone,Insoluble
same,solubility in alcohol / ethanol,Solubility,Insoluble
same,solubility in water,Solubility; water,Soluble
same,selectivity ratio,[1],1.52
same,LD50,"[1]; ip, read-out: LD50 i.p. (P)",4400 µmol/kg
same,LD50,[1]; [11],6700 µmol/kg
"Cc1ncc(CO)c(C=NCCCS(=O)(=O)O)c1O [Example 7, Potassium γ-(3-hydroxy-5-hydroxymethyl-2-methyl-4-pyridylmethyleneimino)propanesulfonate]",B/P ratio (oral LD50 / i.p. LD50),Swiss I.O.P.S. mice,1.75
same,LD50 by gastric tubage (B),Swiss I.O.P.S. mice,7.0 mmol/kg
same,solubility in acetone,Solubility; acetone,Insoluble
same,solubility in water,Solubility; water,Soluble
"Cc1ncc(CO)c(C=NCCS(=O)(=O)O)c1O [Example 9, Lithium β-(3-hydroxy-5-hydroxymethyl-2-methyl-4-pyridylmethyleneimino)ethanesulfonate]",solubility in acetone,Solubility; acetone,Insoluble
same,solubility in water,Solubility; water,Soluble
"Cc1ncc(CO)c(C=NCCS(=O)(=O)O)c1O [Example 11, Calcium β-(3-hydroxy-5-hydroxymethyl-2-methyl-4-pyridylmethyleneimino)ethanesulfonate]",B/P ratio (oral LD50 / i.p. LD50),Swiss I.O.P.S. mice,2.96
same,LD50,in vivo; [9],2600 µmol/kg
same,LD50,in vivo; [10],7700 µmol/kg
"Cc1ncc(CO)c(C=NCCCS(=O)(=O)O)c1O [Example 12, Calcium γ-(3-hydroxy-5-hydroxymethyl-2-methyl-4-pyridylmethyleneimino)propanesulfonate]",B/P ratio (oral LD50 / i.p. LD50),Swiss I.O.P.S. mice,3.3
same,LD50,in vivo; [9],2400 µmol/kg
same,LD50,in vivo; [10],8100 µmol/kg
same,solubility in acetone,Solubility; acetone,Insoluble
same,solubility in methanol,Solubility,Soluble
same,solubility in water,Solubility; water,Soluble
"Cc1ncc(CO)c(C=NCCS(=O)(=O)O)c1O [Example 13, Magnesium β-(3-hydroxy-5-hydroxymethyl-2-methyl-4-pyridylmethyleneimino)ethanesulfonate]",B/P ratio (oral LD50 / i.p. LD50),Swiss I.O.P.S. mice,1.17
same,LD50,in vivo; ip,2800 µmol/kg
same,LD50,in vivo; po,3300 µmol/kg
same,onset of hypercorrection of erythrocyte magnesium,[3],third day
same,onset of correction of erythrocyte magnesium,[3],first day
same,aggression of deficient rats with respect to mice (muricide activity),[3],reduced aggression
same,erythrocyte magnesium level (hypercorrection),[3],79.2 mg
same,solubility in methanol,Solubility,Insoluble
same,activity in controlling magnesium deficiency versus conventional magnesium salts,[4]; 750 mg daily (32 mg Mg ion) vs conventional magnesium salts at doses 10 times larger,more active
same,"symptoms (headache, asthenia, cramp)","[4]; one patient, 3 gelatine-coated pills",regression
same,"erythrocyte magnesium level, first month",[4]; [12],48 mg/L
same,"erythrocyte magnesium level, second month",[4]; [12],53 mg/L
same,erythrocyte magnesium level after interruption of administration,"[4]; one patient, relapse at subsequent monthly control",about 45 mg/l
same,LD50,[5]; [13],2200 µmol/kg
same,selectivity ratio,[5],1.5
same,LD50,[5]; [11],3300 µmol/kg
"Cc1ncc(CO)c(C=NCCCS(=O)(=O)O)c1O [Example 14, Magnesium γ-(3-hydroxy-5-hydroxymethyl-2-methyl-4-pyridylmethyleneimino)propanesulfonate]",B/P ratio (oral LD50 / i.p. LD50),Swiss I.O.P.S. mice,1.24
same,LD50,in vivo; ip,3300 µmol/kg
same,LD50,in vivo; po,4100 µmol/kg
same,onset of hypercorrection of erythrocyte magnesium,[3],third day
same,onset of correction of erythrocyte magnesium,[3],first day
same,aggression of deficient rats with respect to mice (muricide activity),[3],reduced aggression
same,erythrocyte magnesium level (hypercorrection),[3],75.8 mg
same,solubility in acetone,Solubility; acetone,Insoluble
same,solubility in methanol,Solubility,Insoluble
same,solubility in water,Solubility; water,Soluble
same,LD50,[5]; [13],2400 µmol/kg
same,selectivity ratio,[5],1.66
same,LD50,[5]; [11],4200 µmol/kg
"NCCS(=O)(=O)O [Taurine, 2-aminoethanesulfonic acid]",reduction of the neurotoxic effect of kainic acid (wet dog shaking),[6],no significant reduction
same,"potentiation of the hypoglycemic activity of insulin, intravenous",insulin,active intravenously
same,"potentiation of the hypoglycemic activity of insulin, oral",insulin,not orally active
same,oral activity after the metabolic and neurologic tests,insulin,inactive
same,ED50,[2]; read-out: ED50 rolling,4670 µmol/kg
same,ED50,[2]; read-out: ED50 trembling,4340 µmol/kg
"NCCCS(=O)(=O)O [homotaurine, 3-aminopropanesulfonic acid]",reduction of the neurotoxic effect of kainic acid (wet dog shaking),[6],no significant reduction
same,"potentiation of the hypoglycemic activity of insulin, intravenous",insulin,active intravenously
same,"potentiation of the hypoglycemic activity of insulin, oral",insulin,not orally active
same,oral activity after the metabolic and neurologic tests,insulin,inactive
same,antagonism of neurotoxic or convulsant activity of kainic acid,[7],antagonises the neurotoxic or convulsant activity of kainic acid
Cc1ncc(CO)c(C=NCCCS(=O)(=O)O)c1O [lithium γ-(3-hydroxy-5-hydroxymethyl-2-methyl-4-pyridylmethy] [lithium γ-(3-hydroxy-5-hydroxymethyl-2-methyl-4-pyridylmethyleneimino)propanesulfonate],solubility in acetone,Solubility; acetone,insoluble
same,solubility in water,Solubility; water,soluble
"[Cl-].[Cl-].[Mg+2] [magnesium chloride, reference compound]",B/P ratio (oral LD50 / i.p. LD50),Swiss I.O.P.S. mice,2.04
same,LD50 by gastric tubage (B),Swiss I.O.P.S. mice,19.2 mmol/kg
same,B/P ratio (oral LD50 / i.p. LD50),[8],> 8.99
same,LD50 by gastric tubage (B),[8]; oral,greater than 39.3 mmol/kg
"[Cl-].[K+] [potassium chloride, reference compound]",B/P ratio (oral LD50 / i.p. LD50),Swiss I.O.P.S. mice,> 7.25
same,LD50 by gastric tubage (B),Swiss I.O.P.S. mice,greater than 107.3 mmol/kg
"[Cl-].[Na+] [sodium chloride, reference compound]",B/P ratio (oral LD50 / i.p. LD50),[1],> 3.36
same,LD50 by gastric tubage (B),[1]; oral,greater than 205.4 mmol/kg
vitamin B6,oral activity after the metabolic and neurologic tests,insulin,inactive
